The text below walks through data of PubChem BioAssay AID330 (DTP/NCI, 2004).

Toxic doses and inconclusive results are not listed.

In this assay the test system is P388 leukemia ip, CD2F1 mice, survival T/C. Briefly: NCI In Vivo Anticancer Drug Screen. Data for tumor model P388 Leukemia (intraperitoneal) in CD2F1 (CDF1) mice. Conditions: endpoint: median survival time, higher = longer survival. In a few lines: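 Mice carrying the transplanted tumor received test compound or vehicle. Survival was recorded in each group, and the value is the treated-group measurement divided by that of the vehicle-treated control group.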

The mark [1] stands for this setting: dose: 60.0 mg/kg/injection, schedule: Q01DX005 (ip), vehicle: saline with Tween-80.
Where [2] appears, read: dose: 120.0 mg/kg/injection, schedule: Q01DX005 (ip), vehicle: saline with Tween-80.
The mark [3] stands for this setting: dose: 240.0 mg/kg/injection, schedule: Q01DX005 (ip), vehicle: saline with Tween-80.
Setting [4] is: dose: 25.0 mg/kg/injection, schedule: Q01DX009 (ip), vehicle: saline with Tween-80.
Where [5] appears, read: dose: 50.0 mg/kg/injection, schedule: Q01DX009 (ip), vehicle: saline with Tween-80.
[6] abbreviates: dose: 100.0 mg/kg/injection, schedule: Q04DX002 (ip), vehicle: saline with Tween-80.
The mark [7] stands for this setting: dose: 200.0 mg/kg/injection, schedule: Q04DX002 (ip), vehicle: saline with Tween-80.
Setting [8] is: dose: 400.0 mg/kg/injection, schedule: Q04DX002 (ip), vehicle: saline with Tween-80.
Where [9] appears, read: dose: 50.0 mg/kg/injection, schedule: Q01DX009 (ip), vehicle: Klucel (hydroxypropylcellulose) (HPC).
[10] abbreviates: dose: 100.0 mg/kg/injection, schedule: Q01DX009 (ip), vehicle: Klucel (hydroxypropylcellulose) (HPC).
[11] abbreviates: dose: 200.0 mg/kg/injection, schedule: Q01DX009 (ip), vehicle: Klucel (hydroxypropylcellulose) (HPC).
[12] abbreviates: dose: 100.0 mg/kg/injection, schedule: Q01DX009 (ip), vehicle: saline with Tween-80.
[13] abbreviates: dose: 200.0 mg/kg/injection, schedule: Q01DX009 (ip), vehicle: saline with Tween-80.

Take `C[n+]1ccc(Nc2ccc(NC(=O)c3ccc(Nc4cc[n+](C)c5ccc(N)cc45)cc3)cc2)cc1`: the T/C (dose: 1.0 mg/kg/injection, schedule: Q04DX003 (ip), vehicle: Klucel (hydroxypropylcellulose) (HPC)) was 116 % of control; the T/C (dose: 2.0 mg/kg/injection, schedule: Q01DX005 (ip), vehicle: suspension in saline) is 187 % of control; the T/C (dose: 2.0 mg/kg/injection, schedule: Q04DX003 (ip), vehicle: Klucel (hydroxypropylcellulose) (HPC)) was 166 % of control; the T/C (dose: 2.88 mg/kg/injection, schedule: Q04DX003 (ip), vehicle: water) is 158 % of control; the T/C (dose: 4.0 mg/kg/injection, schedule: Q01DX005 (ip), vehicle: suspension in saline) was 239 % of control; the T/C (dose: 4.0 mg/kg/injection, schedule: Q04DX003 (ip), vehicle: Klucel (hydroxypropylcellulose) (HPC)) was 168 % of control. The T/C (dose: 4.8 mg/kg/injection, schedule: Q04DX003 (ip), vehicle: water) is 167 % of control; the T/C (dose: 8.0 mg/kg/injection, schedule: Q01DX005 (ip), vehicle: suspension in saline) was 283 % of control; the T/C (dose: 8.0 mg/kg/injection, schedule: Q04DX003 (ip), vehicle: Klucel (hydroxypropylcellulose) (HPC)) was 237 % of control; the T/C (dose: 8.0 mg/kg/injection, schedule: Q04DX003 (ip), vehicle: water) was 200 % of control; the T/C (dose: 9.0 mg/kg/injection, schedule: Q04DX003 (ip), vehicle: water) is 170 % of control; the T/C (dose: 13.3 mg/kg/injection, schedule: Q04DX003 (ip), vehicle: water) is 238 % of control. Further, the T/C runs as follows: (dose: 16.0 mg/kg/injection, schedule: Q04DX003 (ip), vehicle: Klucel (hydroxypropylcellulose) (HPC)) 270 % of control; (dose: 32.0 mg/kg/injection, schedule: Q04DX003 (ip), vehicle: Klucel (hydroxypropylcellulose) (HPC)) 294 % of control.

`O=c1ssc2ncccc12`: the T/C is 104 % of control under setting [1], 103 % of control under setting [2] and 117 % of control under setting [3].

Turning to `CC1CC[N-]CC1.CC1CC[N-]CC1.CC1CC[N-]CC1.CC1CC[N-]CC1.[Cl][Rh][Cl]`, the T/C is 104 % of control under setting [4] and 104 % of control under setting [5].

On to `O=Cc1c(-c2ccccc2)sc2ccccc2c1=O`, for which the T/C was 113 % of control under setting [6], 98 % of control under setting [7] and 109 % of control under setting [8].

Take `CC(=O)c1cc(Cl)ccc1OCC(O)CNc1ccccc1C(=O)c1ccccc1` (stereo not given): the T/C by setting is: under setting [1], 103 % of control; under setting [2], 87 % of control; under setting [3], 87 % of control.

Consider `CN1C(=O)C(O)(c2c3c(c(C4(O)C(=O)N(C)c5ccccc54)c4c2OCO4)OCO3)c2ccccc21` (stereo not given), for which the T/C by setting is: under setting [1], 89 % of control; under setting [2], 91 % of control; under setting [3], 91 % of control.

With `CCn1cc(C(=O)NC(C)C(=O)NC(C)P(=O)(O)O)c(=O)c2ccc(C)nc21` (stereo not given), the T/C under setting [6] is 101 % of control, the T/C under setting [7] is 102 % of control and the T/C under setting [8] is 101 % of control.

Take `BrCC1C[n+]2c(cc(-c3ccccc3)cc2-c2ccccc2)S1` (stereo not given): the T/C by setting is: (dose: 3.75 mg/kg/injection, schedule: Q01DX005 (ip), vehicle: Klucel (hydroxypropylcellulose) (HPC)) 100 % of control; (dose: 7.5 mg/kg/injection, schedule: Q01DX005 (ip), vehicle: Klucel (hydroxypropylcellulose) (HPC)) 99 % of control.

With `COC(=O)C1NC(C)(C(=O)OC)C2C(=O)NC(=O)C12` (stereo not given), the T/C (dose: 100.0 mg/kg/injection, schedule: Q04DX002 (ip), vehicle: Klucel (hydroxypropylcellulose) (HPC)) is 95 % of control; the T/C (dose: 200.0 mg/kg/injection, schedule: Q04DX002 (ip), vehicle: Klucel (hydroxypropylcellulose) (HPC)) was 93 % of control; the T/C (dose: 400.0 mg/kg/injection, schedule: Q04DX002 (ip), vehicle: Klucel (hydroxypropylcellulose) (HPC)) was 88 % of control.

Consider `CCC(C(=O)O)C(=O)O.[NH-]CC[NH-].[Pt+2]`, for which the T/C is, setting by setting: under setting [4], 190 % of control; (dose: 33.0 mg/kg/injection, schedule: Q04DX003 (ip), vehicle: saline) 120 % of control; under setting [9], 160 % of control; under setting [5], 218 % of control; (dose: 50.0 mg/kg/injection, schedule: Q04DX003 (ip), vehicle: saline with Tween-80) 181 % of control; under setting [10], 205 % of control. Besides, the T/C reads like this: (dose: 100.0 mg/kg/injection, schedule: Q04DX003 (ip), vehicle: saline with Tween-80) 195 % of control; under setting [11], 196 % of control; (dose: 400.0 mg/kg/injection, schedule: Q04DX003 (ip), vehicle: saline) 155 % of control.

As to `C#CC1(NC(=O)c2ccccc2C(=O)Nc2cccc(C(F)(F)F)c2)CCCCC1`, the T/C was 97 % of control under setting [5], 89 % of control under setting [12] and 89 % of control under setting [13].

As for `Nc1cc2c(c[n+](CCCBr)c3ccccc23)c2ccccc12`, the T/C by setting is: (dose: 1.56 mg/kg/injection, schedule: Q04DX003 (ip), vehicle: other) 118 % of control; (dose: 3.13 mg/kg/injection, schedule: Q04DX003 (ip), vehicle: other) 118 % of control; (dose: 6.25 mg/kg/injection, schedule: Q04DX003 (ip), vehicle: other) 122 % of control.

Consider `CN(C)CCC1(C)OCCC2=C1Cc1ccccc12` (stereo not given), for which the T/C under setting [5] is 91 % of control and the T/C under setting [12] is 99 % of control.

Consider `CC1(C)c2ccccc2N2C(c3ccccc3)=NN(c3ccccc3)C21C` (stereo not given), for which the T/C was 100 % of control under setting [1] and 100 % of control under setting [2].

As to `S=CN1CCCCC1`, the T/C is, setting by setting: (dose: 15.0 mg/kg/injection, schedule: Q01DX005 (ip), vehicle: saline with Tween-80) 98 % of control; (dose: 30.0 mg/kg/injection, schedule: Q01DX005 (ip), vehicle: saline with Tween-80) 106 % of control; under setting [1], 106 % of control.

Take `CCCCC1CC=CC(NC#N)=N1` (stereo not given): the T/C was 100 % of control under setting [5], 104 % of control under setting [12] and 115 % of control under setting [13].

As to `CC(CC(N)C(=O)O)C(=O)O` (stereo not given), the T/C was 103 % of control (dose: 50.0 mg/kg/injection, schedule: Q01DX005 (ip), vehicle: saline); 103 % of control under setting [9]; 98 % of control (dose: 100.0 mg/kg/injection, schedule: Q01DX005 (ip), vehicle: saline); 102 % of control under setting [10]; 100 % of control (dose: 200.0 mg/kg/injection, schedule: Q01DX005 (ip), vehicle: saline); 103 % of control under setting [11]. Also, for the setting “dose: 400.0 mg/kg/injection, schedule: Q01DX009 (ip), vehicle: Klucel (hydroxypropylcellulose) (HPC)”, the T/C was 103 % of control.

Take `OCC(O)C1OC(c2ccco2)OC(CO)C1O` (stereo not given): the T/C runs as follows: (dose: 50.0 mg/kg/injection, schedule: Q01DX005 (ip), vehicle: saline with Tween-80) 102 % of control; (dose: 100.0 mg/kg/injection, schedule: Q01DX005 (ip), vehicle: saline with Tween-80) 105 % of control; (dose: 200.0 mg/kg/injection, schedule: Q01DX005 (ip), vehicle: saline with Tween-80) 105 % of control.

With `COC(=O)c1ccccc1N=NN(C)CC1OC2OC(C)(C)OC2C1OC` (stereo not given), the T/C by setting is: (dose: 100.0 mg/kg/injection, schedule: Q01DX001 (ip), vehicle: saline with Tween-80) 99 % of control; (dose: 200.0 mg/kg/injection, schedule: Q01DX001 (ip), vehicle: saline with Tween-80) 99 % of control; (dose: 400.0 mg/kg/injection, schedule: Q01DX001 (ip), vehicle: saline with Tween-80) 97 % of control.

For the compound `O=C1OCCOCCOCCOCCOC(=O)c2cccc1c2`, the T/C was 100 % of control (dose: 100.0 mg/kg/injection, schedule: Q04DX003 (ip), vehicle: suspension in saline); 104 % of control (dose: 200.0 mg/kg/injection, schedule: Q04DX003 (ip), vehicle: suspension in saline); 99 % of control (dose: 400.0 mg/kg/injection, schedule: Q04DX003 (ip), vehicle: suspension in saline).

For `CCC(=O)c1ccc(NC(=O)Nc2ncccn2)cc1`, the T/C runs as follows: (dose: 60.0 mg/kg/injection, schedule: Q01DX005 (ip), vehicle: Klucel (hydroxypropylcellulose) (HPC)) 86 % of control; (dose: 120.0 mg/kg/injection, schedule: Q01DX005 (ip), vehicle: Klucel (hydroxypropylcellulose) (HPC)) 89 % of control; (dose: 240.0 mg/kg/injection, schedule: Q01DX005 (ip), vehicle: Klucel (hydroxypropylcellulose) (HPC)) 95 % of control.
